Test system: Xenopus laevis cleavage stage embryos (stage 8)
Assay: Xenopus cDNA microarray, differential gene expression after PMA treatment during cleavage stage (Group I)
Type: in vivo
Details: PMA 100 ng/ml, stage 8
Source text: Specifically, the method and screen of the present invention function as follows. EST clones produced from Xenopus laevis unfertilized eggs were used in the present study with ˜1,200 EST clones from a 18,500 EST clone set selected for production of a Xenopus cDNA microarray. The Xenopus microarray was used to measure the effect of chemical treatment on Xenopus embryo gene regulation. The chemical treatment was a phorbol ester, PMA. Xenopus eggs were obtained from females induced for ovulation and fertilized in vitro. Control Xenopus laevis embryos were allowed to develop to stage 8 blastula or stage 15 neurula. Treated embryos were exposed to PMA during cleavage stage or during neurulation with end points of blastula (stage 8) or neurula (stage 15). Specifically, PMA 100 ng/ml was added to the incubation media during cleavage stages for evaluation in stage 8 embryo or PMA was added during neural induction for evaluation in stage 15 embryos. RNA extracted from the embryos was used to generate fluorescent cDNA probes for Xenopus microarray analyses to measure differential gene expression with and without the phorbol ester treatment. Analysis was performed using paired RNA samples to compare PMA-treated and untreated embryos: Group I measured the effects of PMA-treatment during the cleavage stage in stage 8 embryos and Group II measured the effects of PMA-treatment during neurulation in stage 15 embryos. Group III measured the change in gene expression between stage 8 and stage 15 embryos.
cDNA fragments were obtained by PCR replication of Xenopus laevis unfertilized egg cDNA inserts, purified, quantitated and loaded onto glass chips by robotics. In addition to the selected ˜1,200 genes, 64 lambda Q gene, an internal control cDNA (Genomic Solutions, Inc., Ann Arbor, Mich.) was loaded on the chip. The insert DNA from ˜1,200 clones were PCR amplified using forward and reverse primers (GF.200 primers, Research Genetics, Huntsville, Ala.). A second PCR was carried out using 1 μl of the primary PCR (20 μl) for template. Excess dNTPs, polymerase and other PCR artifacts were removed from the secondary PCR reactions using Millipore Multiscreen plates (Millipore Corporation, Bedford, Mass.) using the standard protocol. The purity of the PCR products was assessed by electrophoresis and documented using an Alphalmager 1000 Digital Imaging System (Alpha Innotech Corporation, San Leandro, Calif.). The DNA obtained by PCR was quantitated using PicoGreen (Molecular Probes, Eugene, Oreg.). The DNA was denatured and arrayed onto amino-silane coated microscope slides (CMT-GAPS coated slides, Corning, Corning, N.Y.) using a Flexys robotic workstation (Genomic Solutions Inc.). The ˜1,200 PCR products were arrayed in duplicate on each slide and cross-linked. Each gene chip contained duplicate cDNA samples.
Total RNA was prepared from embryos treated in three separate dishes per treatment group that were pooled. Total RNA was isolated from the frog embryos (1,200 embryos for each probe production) using TRIzol extraction (Gibco BRL, Grand Island, N.Y.) and Qiagen RNeasy kits (Qiagen, Valencia, Calif.). The ethanol precipitated RNA was resuspended in RNase-free water, quantitated with RiboGreen (Molecular Probes, Eugene, Oreg.). Total RNA was further purified using oligoTex mRNA maxi kit (Qiagen Co.) with the bound mRNA eluted with minimum volume of elution buffer and precipitated with ethanol. The recovery rate of mRNA by the ethanol precipitation method was ˜70%. Cy3- or Cy5-tagged probes were produced from an mRNA mixture (20 μl) of Xenopus mRNA (5 μg) and lambda Q gene mRNA (3.5 ng) reverse-transcribed with oligo(dT)18-22 primer and dNTPs and the reverse-transcribed cDNA was cross-linked with Cy3 or Cy5 as described in Clontech Atlas™ Glass Fluorescent Labeling kit manual (www.clontech.com). After hydrolysis of the RNA and purification of the probe (Centricon 50, Millipore, Bedford, Mass.), the cDNA in TE buffer was quantitated by absorbance at 260 nm. […]

SMILES: CCCCCCCCCCCCCC(=O)O[C@@H]1[C@@H](C)[C@@]2(O)[C@@H](C=C(CO)C[C@]3(O)C(=O)C(C)=C[C@@H]23)[C@@H]2C(C)(C)[C@]12OC(C)=O [PMA, phorbol 12-myristate 12-acetate]
- Normalized by Landmarks (1.59) (PBX0140D01 mRNA): 3.66
- Normalized by all Data Points (1.28) (PBX0140D01 mRNA): 2.94
- Ratio of Medians (Cy5/Cy3) First Spot (PBX0140D01 mRNA): 2.09
- Ratio of Medians (Cy5/Cy3) Mean (PBX0140D01 mRNA): 2.30 ± 0.20
- Ratio of Medians (Cy5/Cy3) Second Spot (PBX0140D01 mRNA): 2.50
- (CY3/CY5) by Landmarks (1.6) (PBX0140F01 mRNA): 2.39
- (CY3/CY5) by all Data Points (1.3) (PBX0140F01 mRNA): 3.83
- Normalization by Landmarks (1.6) (PBX0140F01 mRNA): 0.42
- Normalization by all Data Points (1.3) (PBX0140F01 mRNA): 0.26
- Ratio of Medians (Cy5/Cy3) First Spot (PBX0140F01 mRNA): 0.24
- Ratio of Medians (Cy5/Cy3) Mean (PBX0140F01 mRNA): 0.20 ± 0.04
- Ratio of Medians (Cy5/Cy3) Second Spot (PBX0140F01 mRNA): 0.16
- (CY3/CY5) by Landmarks (1.6) (PBX0140H03 mRNA): 3.52
- (CY3/CY5) by all Data Points (1.3) (PBX0140H03 mRNA): 5.64
- Normalization by Landmarks (1.6) (PBX0140H03 mRNA): 0.28
- Normalization by all Data Points (1.3) (PBX0140H03 mRNA): 0.18
- Ratio of Medians (Cy5/Cy3) First Spot (PBX0140H03 mRNA): 0.09
- Ratio of Medians (Cy5/Cy3) Mean (PBX0140H03 mRNA): 0.14 ± 0.05
- Ratio of Medians (Cy5/Cy3) Second Spot (PBX0140H03 mRNA): 0.19
- (CY3/CY5) by Landmarks (1.6) (PBX0141B03 mRNA): 1.74
- (CY3/CY5) by all Data Points (1.3) (PBX0141B03 mRNA): 2.78
- Normalization by Landmarks (1.6) (PBX0141B03 mRNA): 0.58
- Normalization by all Data Points (1.3) (PBX0141B03 mRNA): 0.36
- Ratio of Medians (Cy5/Cy3) First Spot (PBX0141B03 mRNA): 0.38
- Ratio of Medians (Cy5/Cy3) Mean (PBX0141B03 mRNA): 0.28 ± 0.10
- Ratio of Medians (Cy5/Cy3) Second Spot (PBX0141B03 mRNA): 0.18
- (CY3/CY5) by Landmarks (1.6) (PBX0141F12 mRNA): 3.56
- (CY3/CY5) by all Data Points (1.3) (PBX0141F12 mRNA): 5.70
- Normalization by Landmarks (1.6) (PBX0141F12 mRNA): 0.28
- Normalization by all Data Points (1.3) (PBX0141F12 mRNA): 0.18
- Ratio of Medians (Cy5/Cy3) First Spot (PBX0141F12 mRNA): 0.10
- Ratio of Medians (Cy5/Cy3) Mean (PBX0141F12 mRNA): 0.14 ± 0.03
- Ratio of Medians (Cy5/Cy3) Second Spot (PBX0141F12 mRNA): 0.17
- (CY3/CY5) by Landmarks (1.6) (PBX0141G06 mRNA): 1.67
- (CY3/CY5) by all Data Points (1.3) (PBX0141G06 mRNA): 2.67
- Normalization by Landmarks (1.6) (PBX0141G06 mRNA): 0.60
- Normalization by all Data Points (1.3) (PBX0141G06 mRNA): 0.38
- Ratio of Medians (Cy5/Cy3) First Spot (PBX0141G06 mRNA): 0.17
- Ratio of Medians (Cy5/Cy3) Mean (PBX0141G06 mRNA): 0.29 ± 0.12
- Ratio of Medians (Cy5/Cy3) Second Spot (PBX0141G06 mRNA): 0.41
- Normalized by Landmarks (1.59) (PBX0141G10 mRNA): 4.98
- Normalized by all Data Points (1.28) (PBX0141G10 mRNA): 4.01
- Ratio of Medians (Cy5/Cy3) First Spot (PBX0141G10 mRNA): 2.53
- Ratio of Medians (Cy5/Cy3) Mean (PBX0141G10 mRNA): 3.13 ± 0.59
- Ratio of Medians (Cy5/Cy3) Second Spot (PBX0141G10 mRNA): 3.72
- (CY3/CY5) by Landmarks (1.6) (PBX0142E01 mRNA): 2.64
- (CY3/CY5) by all Data Points (1.3) (PBX0142E01 mRNA): 4.23
- Normalization by Landmarks (1.6) (PBX0142E01 mRNA): 0.38
- Normalization by all Data Points (1.3) (PBX0142E01 mRNA): 0.24
- Ratio of Medians (Cy5/Cy3) First Spot (PBX0142E01 mRNA): 0.14
- Ratio of Medians (Cy5/Cy3) Mean (PBX0142E01 mRNA): 0.18 ± 0.04
- Ratio of Medians (Cy5/Cy3) Second Spot (PBX0142E01 mRNA): 0.22
- Normalized by Landmarks (1.59) (PBX0142E09 mRNA): 4.32
- Normalized by all Data Points (1.28) (PBX0142E09 mRNA): 3.48
- Ratio of Medians (Cy5/Cy3) First Spot (PBX0142E09 mRNA): 2.50
- Ratio of Medians (Cy5/Cy3) Mean (PBX0142E09 mRNA): 2.72 ± 0.21
- Ratio of Medians (Cy5/Cy3) Second Spot (PBX0142E09 mRNA): 2.93
- (CY3/CY5) by Landmarks (1.6) (PBX0142H06 mRNA): 2.52
- (CY3/CY5) by all Data Points (1.3) (PBX0142H06 mRNA): 4.04
- Normalization by Landmarks (1.6) (PBX0142H06 mRNA): 0.40
- Normalization by all Data Points (1.3) (PBX0142H06 mRNA): 0.25
- Ratio of Medians (Cy5/Cy3) First Spot (PBX0142H06 mRNA): 0.15
- Ratio of Medians (Cy5/Cy3) Mean (PBX0142H06 mRNA): 0.19 ± 0.04
- Ratio of Medians (Cy5/Cy3) Second Spot (PBX0142H06 mRNA): 0.23
- (CY3/CY5) by Landmarks (1.6) (PBX0143C01 mRNA): 2.54
- (CY3/CY5) by all Data Points (1.3) (PBX0143C01 mRNA): 4.07
- Normalization by Landmarks (1.6) (PBX0143C01 mRNA): 0.39
- Normalization by all Data Points (1.3) (PBX0143C01 mRNA): 0.25
- Ratio of Medians (Cy5/Cy3) First Spot (PBX0143C01 mRNA): 0.16
- Ratio of Medians (Cy5/Cy3) Mean (PBX0143C01 mRNA): 0.19 ± 0.03
- Ratio of Medians (Cy5/Cy3) Second Spot (PBX0143C01 mRNA): 0.22
- (CY3/CY5) by Landmarks (1.6) (PBX0143D10 mRNA): 1.57
- (CY3/CY5) by all Data Points (1.3) (PBX0143D10 mRNA): 2.51
